Results as given in the NIST ThermoML archive (doi:10.1016/j.jct.2007.06.009).

Assays:
[1] = refractive index (Na D-line) (dimensionless); conditions: 303.15 K; 101.33 kPa; Liquid; Standard Abbe refractometry
[2] = 303.15 K; 101 kPa; Liquid
[3] = xn = mol fraction of the nth substance listed; conditions: 303.15 K, 101 kPa, Liquid
[4] = excess molar enthalpy (molar enthalpy of mixing); xn = mol fraction of the nth substance listed; conditions: 303 K, 101 kPa, Liquid
[5] = refractive index (Na D-line) (dimensionless); xn = mol fraction of the nth substance listed; conditions: 303.15 K, 101 kPa, Liquid, Standard Abbe refractometry

CCCCO [butan-1-ol]
Conditions | mass density [kg/m3] | refractive index | viscosity [mPa·s]
[1] | – | 1.39479 | –
[2] | 802.2 | – | 2.195

CCCCO [butan-1-ol] + CCC(C)=O
x1 = 1
Conditions | excess molar enthalpy [kJ/mol] | mass density [kg/m3] | refractive index | viscosity [mPa·s]
[3] | – | 802.2 | – | 2.195
[4] | 0 | – | – | –
[5] | – | – | 1.39479 | –

CCC(C)=O [butanone]
Conditions | mass density [kg/m3] | refractive index | viscosity [mPa·s]
[1] | – | 1.37383 | –
[2] | 794.5 | – | 0.347

CCC(C)=O [butanone] + CCCCO
Conditions | excess molar enthalpy [kJ/mol] | mass density [kg/m3] | refractive index | viscosity [mPa·s]
[3], x2 = 0 | – | 794.5 | – | 0.347
[3], x2 = 0.0704 | – | – | – | 0.364
[3], x2 = 0.0765 | – | 795 | – | –
[3], x2 = 0.1392 | – | 795.4 | – | –
[3], x2 = 0.1468 | – | – | – | 0.388
[3], x2 = 0.2097 | – | 795.9 | – | –
[3], x2 = 0.2163 | – | – | – | 0.421
[3], x2 = 0.2775 | – | 796.4 | – | –
[3], x2 = 0.2818 | – | – | – | 0.455
[3], x2 = 0.3429 | – | – | – | 0.479
[3], x2 = 0.3488 | – | 796.9 | – | –
[3], x2 = 0.4244 | – | – | – | 0.553
[3], x2 = 0.442 | – | 797.6 | – | –
[3], x2 = 0.4933 | – | 798 | – | –
[3], x2 = 0.4988 | – | – | – | 0.615
[3], x2 = 0.5008 | – | 798.1 | – | –
[3], x2 = 0.5577 | – | 798.5 | – | –
[3], x2 = 0.5755 | – | – | – | 0.704
[3], x2 = 0.6404 | – | 799.2 | – | –
[3], x2 = 0.6474 | – | 799.3 | – | 0.813
[3], x2 = 0.7105 | – | – | – | 0.925
[3], x2 = 0.7257 | – | 799.9 | – | –
[3], x2 = 0.7799 | – | – | – | 1.091
[3], x2 = 0.7944 | – | 800.5 | – | –
[3], x2 = 0.8562 | – | 801 | – | –
[3], x2 = 0.8596 | – | – | – | 1.342
[3], x2 = 0.9263 | – | – | – | 1.645
[3], x2 = 0.9307 | – | 801.6 | – | –
[4], x2 = 0 | 0 | – | – | –
[4], x2 = 0.134 | 0.643 | – | – | –
[4], x2 = 0.193 | 0.919 | – | – | –
[4], x2 = 0.289 | 1.18 | – | – | –
[4], x2 = 0.35 | 1.36 | – | – | –
[4], x2 = 0.425 | 1.47 | – | – | –
[4], x2 = 0.514 | 1.47 | – | – | –
[4], x2 = 0.619 | 1.41 | – | – | –
[4], x2 = 0.7 | 1.23 | – | – | –
[4], x2 = 0.769 | 1.12 | – | – | –
[4], x2 = 0.82 | 0.849 | – | – | –
[4], x2 = 0.911 | 0.591 | – | – | –
[5], x2 = 0 | – | – | 1.37383 | –
[5], x2 = 0.0765 | – | – | 1.37557 | –
[5], x2 = 0.1392 | – | – | 1.37702 | –
[5], x2 = 0.2097 | – | – | 1.37867 | –
[5], x2 = 0.2775 | – | – | 1.3802 | –
[5], x2 = 0.3488 | – | – | 1.3819 | –
[5], x2 = 0.442 | – | – | 1.38402 | –
[5], x2 = 0.4933 | – | – | 1.38514 | –
[5], x2 = 0.5008 | – | – | 1.38533 | –
[5], x2 = 0.5577 | – | – | 1.3866 | –
[5], x2 = 0.6404 | – | – | 1.38835 | –
[5], x2 = 0.6474 | – | – | 1.38848 | –
[5], x2 = 0.7257 | – | – | 1.39011 | –
[5], x2 = 0.7944 | – | – | 1.39145 | –
[5], x2 = 0.8562 | – | – | 1.3926 | –
[5], x2 = 0.9307 | – | – | 1.39387 | –
